Test results as given in ChEMBL document CHEMBL3045500, “Antituberculosis and antibacterial evaluations of some novel phenyl pyrazolone-substituted 1h-benzo[g]pyrazolo[3,4-b]quinoline-3-ylamine derivatives” (2012).
Converted amounts (≈) assume the structure as drawn.

What was measured:
[1] = system: Mycobacterium tuberculosis; experiment: Antimicrobial activity against Mycobacterium tuberculosis H37Rv after 10 days by BACTEC MGIT method; format: functional; conditions: 240 h
Bacillus subtilis [2] = experiment: Antimicrobial activity against Bacillus subtilis MTCC 619 after 24 hr by disk diffusion method; format: functional; conditions: for MIC: Bacillus subtilis, MTCC 619, 24 h
Staphylococcus aureus [3] = experiment: Antimicrobial activity against Staphylococcus aureus MTCC 96 after 24 hr by disk diffusion method; format: functional; conditions: for MIC: Staphylococcus aureus, MTCC 96, 24 h
Escherichia coli [4] = experiment: Antimicrobial activity against Escherichia coli MTCC 739 after 24 hr by disk diffusion method; format: functional; conditions: for MIC: Escherichia coli, MTCC 739, 24 h
Pseudomonas aeruginosa [5] = experiment: Antimicrobial activity against Pseudomonas aeruginosa MTCC 741 after 24 hr by disk diffusion method; format: functional; conditions: for MIC: Pseudomonas aeruginosa, MTCC 741, 24 h
Staphylococcus aureus [6] = experiment: Antimicrobial activity against Staphylococcus aureus MTCC 96 at 100 ug/disc after 24 hr by disk diffusion method; conditions: MTCC 96, 24 h, read-out: IZ
Bacillus subtilis [7] = experiment: microbe, parasite or virus in culture; conditions: MTCC 619, 24 h, read-out: IZ
Description: Antimicrobial activity against Bacillus subtilis MTCC 619 at 100 ug/disk after 24 hr by disk diffusion method

Pseudomonas aeruginosa [8] = experiment: microbe, parasite or virus in culture; conditions: MTCC 741, 24 h, read-out: IZ
Description: Antimicrobial activity against Pseudomonas aeruginosa MTCC 741 at 100 ug/disk after 24 hr by disk diffusion method

Escherichia coli [9] = experiment: microbe, parasite or virus in culture; conditions: MTCC 739, 24 h, read-out: IZ
Description: Antimicrobial activity against Escherichia coli MTCC 739 at 100 ug/disk after 24 hr by disk diffusion method

Compound	MIC99 [1]	inhibition zone (IZ) (Bacillus subtilis [2])	MIC (Bacillus subtilis [2])	inhibition zone (IZ) (Staphylococcus aureus [3])	MIC (Staphylococcus aureus [3])	inhibition zone (IZ) (Escherichia coli [4])	MIC (Escherichia coli [4])	inhibition zone (IZ) (Pseudomonas aeruginosa [5])	MIC (Pseudomonas aeruginosa [5])	zone of inhibition at 100 µg/disc (Staphylococcus aureus [6])	zone of inhibition at 100 µg/disc (Bacillus subtilis [7])	zone of inhibition at 100 µg/disc (Pseudomonas aeruginosa [8])	zone of inhibition at 100 µg/disc (Escherichia coli [9])
CC1=NN(c2cccc(S(=O)(=O)O)c2)C(=O)C1/N=N/c1n[nH]c2nc3cc4ccccc4cc3cc12 (centres undefined)	500 µg/mL (≈ 1000 µM)	12 mm	100 µg/mL (≈ 200 µM)	11 mm	100 µg/mL (≈ 200 µM)	10 mm	100 µg/mL (≈ 200 µM)	<10 mm	100 µg/mL (≈ 200 µM)				
CC1=NN(c2cc(S(=O)(=O)O)ccc2Cl)C(=O)C1/N=N/c1n[nH]c2nc3cc4ccccc4cc3cc12 (centres undefined)	1000 µg/mL (≈ 1870 µM)	14 mm	50 µg/mL (≈ 93.6 µM)	18 mm	50 µg/mL (≈ 93.6 µM)	18 mm	100 µg/mL (≈ 187 µM)	14 mm	100 µg/mL (≈ 187 µM)				
CC1=NN(c2cc(Cl)ccc2Cl)C(=O)C1/N=N/c1n[nH]c2nc3cc4ccccc4cc3cc12 (centres undefined)	62.5 µg/mL (≈ 128 µM)	24 mm	20 µg/mL (≈ 41 µM)	22 mm	20 µg/mL (≈ 41 µM)	19 mm	50 µg/mL (≈ 102 µM)	18 mm	50 µg/mL (≈ 102 µM)				
CC1=NN(c2ccccc2Cl)C(=O)C1/N=N/c1n[nH]c2nc3cc4ccccc4cc3cc12 (centres undefined)	250 µg/mL (≈ 551 µM)	16 mm	50 µg/mL (≈ 110 µM)	16 mm	50 µg/mL (≈ 110 µM)	16 mm	50 µg/mL (≈ 110 µM)	16 mm	50 µg/mL (≈ 110 µM)				
CC1=NN(c2cccc(Cl)c2)C(=O)C1/N=N/c1n[nH]c2nc3cc4ccccc4cc3cc12 (centres undefined)	250 µg/mL (≈ 551 µM)	18 mm	50 µg/mL (≈ 110 µM)	16 mm	50 µg/mL (≈ 110 µM)	17 mm	50 µg/mL (≈ 110 µM)	15 mm	50 µg/mL (≈ 110 µM)				
CC1=NN(c2ccc(Cl)c(Cl)c2)C(=O)C1/N=N/c1n[nH]c2nc3cc4ccccc4cc3cc12 (centres undefined)	62.5 µg/mL (≈ 128 µM)	24 mm	20 µg/mL (≈ 41 µM)	20 mm	20 µg/mL (≈ 41 µM)	20 mm	50 µg/mL (≈ 102 µM)	21 mm	50 µg/mL (≈ 102 µM)				
CC1=NN(c2ccc(S(=O)(=O)O)cc2C)C(=O)C1/N=N/c1n[nH]c2nc3cc4ccccc4cc3cc12 (centres undefined)	500 µg/mL (≈ 974 µM)	11 mm	100 µg/mL (≈ 195 µM)	12 mm	100 µg/mL (≈ 195 µM)	12 mm	100 µg/mL (≈ 195 µM)	11 mm	100 µg/mL (≈ 195 µM)				
CC1=NN(c2ccc(S(=O)(=O)O)cc2)C(=O)C1/N=N/c1n[nH]c2nc3cc4ccccc4cc3cc12 (centres undefined)	1000 µg/mL (≈ 2000 µM)	12 mm	100 µg/mL (≈ 200 µM)	14 mm	100 µg/mL (≈ 200 µM)	10 mm	100 µg/mL (≈ 200 µM)	<10 mm	100 µg/mL (≈ 200 µM)				
CC1=NN(c2cc(Cl)c(S(=O)(=O)O)cc2Cl)C(=O)C1/N=N/c1n[nH]c2nc3cc4ccccc4cc3cc12 (centres undefined)	500 µg/mL (≈ 880 µM)	20 mm	50 µg/mL (≈ 88 µM)	18 mm	50 µg/mL (≈ 88 µM)	16 mm	100 µg/mL (≈ 176 µM)	15 mm	100 µg/mL (≈ 176 µM)				
CC1=NN(c2ccc(C)cc2)C(=O)C1/N=N/c1n[nH]c2nc3cc4ccccc4cc3cc12 (centres undefined)	125 µg/mL (≈ 288 µM)	16 mm	50 µg/mL (≈ 115 µM)	14 mm	50 µg/mL (≈ 115 µM)	12 mm	100 µg/mL (≈ 231 µM)	14 mm	100 µg/mL (≈ 231 µM)				
O=C(O)c1cn(C2CC2)c2cc(N3CCNCC3)c(F)cc2c1=O [CIPROFLOXACIN]			≤ 1 µg/mL		≤ 1 µg/mL		≤ 1 µg/mL		≤ 1 µg/mL	32 mm	33 mm	31 mm	30 mm
NNC(=O)c1ccncc1 [ISONIAZID]	0.2 µg/mL (≈ 1.46 µM)												
